This experiment addresses T1, human GPR119 receptor (Homo sapiens, UniProt Q8TDV5).
T1 construct: expressed in transfected cells
T1 sequence (Q8TDV5 1-335): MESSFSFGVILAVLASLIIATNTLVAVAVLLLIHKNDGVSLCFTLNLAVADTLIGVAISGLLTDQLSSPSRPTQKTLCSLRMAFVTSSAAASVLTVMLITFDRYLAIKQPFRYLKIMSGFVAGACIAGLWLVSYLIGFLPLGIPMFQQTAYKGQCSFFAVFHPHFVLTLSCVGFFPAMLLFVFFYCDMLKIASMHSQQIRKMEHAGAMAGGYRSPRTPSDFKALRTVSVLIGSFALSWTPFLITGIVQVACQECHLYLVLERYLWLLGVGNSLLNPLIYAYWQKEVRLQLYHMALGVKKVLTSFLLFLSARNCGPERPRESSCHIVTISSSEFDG
Description: Human GPR119 activity assay (cAMP HTRF in HEK293-hGPR119 cells). The class given is cell-based. The settings on record: cAMP stimulation in HEK293 cells stably expressing human GPR119, 20 min incubation, read-out: Agonist potency at the human GPR119, EC50. As for the experimental part: Human GPR119 Activity Assay
Agonists to the human GPR119 receptor were characterized by measuring human GPR119 receptor-mediated stimulation of cyclic AMP (cAMP) in HEK 293 cells expressing the human GPR119 receptor.
Briefly, cAMP content was determined using a cAMP kit based on HTRF technology (Homogeneous Time-Resolved Fluorescence, Cisbio Cat. no. 62AM2PEC). HEK293 cells stably expressing the human GPR119 receptor (HEK293-hGPR119 cells) were cultured in DMEM (Gibco #31966-021) supplemented with 10% Bovine Calf Serum (Hyclone #SH30072.03), and, 500 μg/mL Hygromycin B (Roche Diagnostics 843555). At 80% confluency, cells were detached using Trypsine and aliquoted at a density of 5×10^6 cells/mL in freezing medium (DMEM (Gibco # 31966-021), 20% BCS (Hyclone #SH30072.03), 10% DMSO (Sigma #D2650) and stored at −135° C. On the experimental day, HEK293-hGPR119 cells were thawn and diluted to 0.4×10^6 cells/mL in assay buffer (1×HBSS (Gibco Cat. no. 14025-049), 20 mM Hepes (Gibco Cat. no. 15630-056), 0.1% BSA, pH 7.4) and incubated with test substances for 20 min at room temperature. After addition of HTRF reagents diluted in lysis buffer, the 96- or 384-well plates were incubated 1 hour, followed by measuring the fluorescence ratio at 665 nm/620 nm. […]

Structures are written as SMILES.

On to `CCN(Cc1ccc(-c2ccc(S(C)(=O)=O)cc2)nn1)C1CCN(C(=O)OC(C)(C)C)CC1` [Example A4, tert-Butyl 4-[ethyl({6-[4-(methylsulfonyl)phenyl]pyridazin-3-yl}methyl)amino]-piperidine-1-carboxylate], for which the EC50 was found to be 83 nM.
In the case of `CC(C)(C)OC(=O)N1CCC(COc2ccc(-c3ccc(S(C)(=O)=O)cc3)nn2)CC1` [Example A1, tert-Butyl 4-[({6-[4-(methylsulfonyl)phenyl]pyridazin-3-yl}oxy)methyl]piperidine-1-carboxylate] it was 46 nM.

(Values after patent US20080058339A1, “New compounds” (Biovitrum, priority 2006, published 2008).)
